Patent US6833456B2, “Indolyl-urea derivatives of thienopyridines useful as antiangiogenic agents, and methods for their use” (Agouron Pharmaceuticals, Inc., priority 2002, dated 2004)
Several values for one entry are separate records, joined by “and”; a condition that tells them apart may be missing. Equal entries are not always repeated.

Legend:
[1] = biological target: T1, PDGFRβ (Homo sapiens, UniProt P09619); assay: PAE-PDGFRβ phosphorylation in PAE-PDGFRB cells assay; type: cell-based; details: PAE cells overexpressing human PDGFRβ, PDGF-BB stimulated; read-out: PAE PDGFR autophos IC50
T1 construct: expressed in transfected cells; host or cells: porcine aorta endothelial (PAE) cells
Protocol: This assay determines the ability of a test compound to inhibit the autophosphorylation of PDGFRβ in porcine aorta endothelial (PAE)-PDGFRβ cells. PAE cells that overexpress human PDGFRβ were used in this assay. The cells were cultured in Ham's F12 media supplemented with 10% fetal bovine serum (FBS) and 400 ug/ml G418. Twenty thousands cells were seeded in each well of a 96-well plate in 50 μL of growth media and allowed to attach for 6 hours at 37° C. Cells were then exposed to the starvation media (Ham's F12 media supplemented with 0.1% FBS) for 16 hours. After the starvation period was over, 10 μL of test agent in 5% DMSO in starvation media were added to the test wells and 10 μL of the vehicle (5% DMSO in starvation media) were added into the control wells. The final DMSO concentration in each well was 0.5%. Plates were incubated at 37° C. for 1 hour and the cells were then stimulated with 1 μg/mL PDGF-BB (R & D System) in the presence of 2 mM Na3VO4 for 8 minutes. The cells were washed once with 1 mm Na3VO4 in HBSS and lysed by adding 50 μL per well of lysis buffer. One hundred μL of dilution buffer were then added to each well and the diluted cell lysate was transferred to a 96-well goat ant-rabbit coated plate (Pierce), which was pre-coated with Rabbit anti Human PDGFRβ antibody (Santa Cruz). The plates were incubated at room temperature for 2 hours and washed seven times with 1% Tween 20 in PBS. HRP-PY20 (Santa Cruz) was diluted and added to the plate for a 30-minute incubation. Plates were then washed again and TMB peroxidase substrate (Kirkegaard & Perry) was added for a 10-minute incubation. One hundred μL of 0.09 N H2SO4 was added into each well of the 96-well plate to stop the reaction. Phosphorylation status was assessed by spectrophotometer reading at 450 nm. IC50 values were calculated by curve fitting using a four-parameter analysis.

[2] = biological target: T2, unphosphorylated VEGF-R2Δ50 (FLVK) (Homo sapiens, UniProt P35968, DEL940-989/E990V); assay: VEGF-R2 coupled spectrophotometric assay, unphosphorylated construct (FLVK); type: biochemical
T2 construct: VEGF-R2Δ50 contains residues 806-939 and 990-1171; made in house; host or cells: baculovirus/insect cell system
Outline: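 Continuous coupled assay (PEP, PK, LDH; NADH loss at 340 nm) in 200 mM HEPES pH 7.5 with 3 mM ATP, 20 mM poly(E4Y1), 60 mM MgCl2 plus 2 mM MnCl2, started with 5-40 nM non-autophosphorylated VEGF-R2Δ50. Ki values from activity across compound concentrations, Morrison fit.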

[3] = Mouse PK assay; type: in vivo, B6 female mice; details: for AUC / Cmax: female, B6, mouse, plasma; for AUC / Cmax / Mouse Cmin, po: po; for Cmax: read-out: Mouse Cmax, po ng-h/mL
Protocol: The pharmacokinetics (e.g., absorption and elimination) of drugs in mice were analyzed using the following experiment. Test compounds were formulated as a suspension in a 30:70 (PEG 400: acidified H2O) vehicle. This solution was administered orally (p.o.) and intraperitoneally (i.p.) at 50 mg/kg to two distinct groups (n=4) of B6 female mice. Blood samples were collected via an orbital bleed at time points: 0 hour (pre-dose), 0.5 hr, 1.0 hr, 2.0 hr, and 4.0 hr post dose. Plasma was obtained from each sample by centrifugation at 2500 rpm for 5 min. Test compound was extracted from the plasma by an organic protein precipitation method. For each time bleed, 50 μL of plasma was combined with 1.0 mL of acetonitrile, vortexed for 2 min. and then spun at 4000 rpm for 15 min. to precipitate the protein and extract out the test compound. Next, the acetonitrile supernatant (the extract containing test compound) was poured into new test tubes and evaporated on a hot plate (25° C.) under a steam of N2 gas. To each tube containing the dried test compound extract, 125 μL of mobile phase (60:40, 0.025 M NH4H2PO4+2.5 mL/L TEA:acetonitrile) was added. The test compound was resuspended in the mobile phase by vortexing and more protein was removed by centrifugation at 4000 rpm for 5 min. Each sample was poured into an HPLC vial for test compound analysis on an Hewlett Packard 1100 series HPLC with UV detection. From each sample, 95 μL was injected onto a Phenomenex-Prodigy reverse phase C-18, 150×3.2 mm column and eluted with a 45-50% acetonitrile gradient run over 10 min. Test-compound plasma concentrations (μg/mL) were determined by a comparison to standard curve (peak area vs. conc. μg/mL) using known concentrations of test compound extracted from plasma samples in the manner described above. Along with the standards and unknowns, three groups (n=4) of quality controls (0.25 μg/mL, 1.5 μg/mL, and 7.5 μg/mL) were run to insure the consistency of the analysis. […] The quantitated test samples were plotted for visual display using Kaleidagraph software and their pharmacokinetic parameters were determined using WIN NONLIN software.

[4] = tested on: human umbilical vein endothelial cells (HUVEC); assay: HUVEC+VEGF proliferation assay; type: cell-based; details: VEGF 6 ng/mL, MTT
Protocol: This assay determines the ability of a test compound to inhibit the growth factor-stimulated proliferation of human umbilical vein endothelial cells (“HUVEC”). HUVEC cells (passage 3-4, Clonetics, Corp.) were thawed into EGM2 culture medium (Clonetics Corp) in T75 flasks. Fresh EGM2 medium was added to the flasks 24 hours later. Four or five days later, cells were exposed to another culture medium (F12K medium supplemented with 10% fetal bovine serum (FBS), 60 μg/mL endothelial cell growth supplement (ECGS), and 0.1 mg/mL heparin). Exponentially-growing HUVEC cells were used in experiments thereafter. Ten to twelve thousand HUVEC cells were plated in 96-well dishes in 100 μl of rich, culture medium (described above). The cells were allowed to attach for 24 hours in this medium. The medium was then removed by aspiration and 105 μl of starvation media (F12K+1% FBS) was added to each well. After 24 hours, 15 μl of test agent dissolved in 1% DMSO in starvation medium or this vehicle alone was added into each treatment well; the final DMSO concentration was 0.1%. One hour later, 30 μl of VEGF (30 ng/mL) in starvation media was added to all wells except those containing untreated controls; the final VEGF concentration was 6 ng/mL. Cellular proliferation was quantified 72 hours later by MTT dye reduction, at which time cells were exposed for 4 hours MTT (Promega Corp.). Dye reduction was stopped by addition of a stop solution (Promega Corp.) and absorbance at 595 nm was determined on a 96-well spectrophotometer plate reader.

T1 sequence (P09619 33-1106): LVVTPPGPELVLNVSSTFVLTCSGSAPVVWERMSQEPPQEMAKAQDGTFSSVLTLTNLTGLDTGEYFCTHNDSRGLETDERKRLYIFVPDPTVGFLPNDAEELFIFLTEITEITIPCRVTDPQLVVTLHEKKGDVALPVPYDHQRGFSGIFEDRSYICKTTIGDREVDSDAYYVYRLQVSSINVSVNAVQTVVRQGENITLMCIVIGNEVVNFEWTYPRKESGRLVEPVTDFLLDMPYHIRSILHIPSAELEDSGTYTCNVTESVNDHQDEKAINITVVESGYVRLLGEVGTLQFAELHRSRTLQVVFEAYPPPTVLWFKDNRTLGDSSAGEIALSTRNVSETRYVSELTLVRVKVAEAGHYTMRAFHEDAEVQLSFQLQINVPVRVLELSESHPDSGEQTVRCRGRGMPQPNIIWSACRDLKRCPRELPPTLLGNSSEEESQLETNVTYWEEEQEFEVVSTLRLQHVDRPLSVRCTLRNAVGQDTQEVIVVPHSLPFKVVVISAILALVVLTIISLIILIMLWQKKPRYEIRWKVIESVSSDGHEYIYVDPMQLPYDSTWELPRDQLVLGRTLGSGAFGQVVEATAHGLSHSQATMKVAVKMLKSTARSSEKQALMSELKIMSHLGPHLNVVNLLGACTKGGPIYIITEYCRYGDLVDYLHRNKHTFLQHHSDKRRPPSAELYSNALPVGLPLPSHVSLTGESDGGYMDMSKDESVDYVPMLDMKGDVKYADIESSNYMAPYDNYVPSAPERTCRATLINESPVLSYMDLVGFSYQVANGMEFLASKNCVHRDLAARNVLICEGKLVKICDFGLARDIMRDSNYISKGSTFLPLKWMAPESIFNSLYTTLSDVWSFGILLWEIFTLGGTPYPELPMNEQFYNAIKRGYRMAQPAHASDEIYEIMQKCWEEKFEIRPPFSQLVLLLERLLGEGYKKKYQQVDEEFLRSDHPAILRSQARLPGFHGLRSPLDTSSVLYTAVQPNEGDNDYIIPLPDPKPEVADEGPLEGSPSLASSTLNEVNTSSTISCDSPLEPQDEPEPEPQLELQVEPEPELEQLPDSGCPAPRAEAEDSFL
T2 sequence (P35968 with tags, fused parts or gaps DEL940-989/E990V limits assumed): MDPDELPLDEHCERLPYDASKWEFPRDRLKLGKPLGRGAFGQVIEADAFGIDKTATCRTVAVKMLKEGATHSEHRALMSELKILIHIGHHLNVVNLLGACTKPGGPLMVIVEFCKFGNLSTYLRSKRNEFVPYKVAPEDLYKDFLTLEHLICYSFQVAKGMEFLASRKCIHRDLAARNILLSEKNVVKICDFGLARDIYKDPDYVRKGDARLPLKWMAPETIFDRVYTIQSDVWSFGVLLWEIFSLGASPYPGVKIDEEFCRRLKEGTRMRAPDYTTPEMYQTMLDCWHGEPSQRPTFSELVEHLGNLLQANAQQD

Row | Compound | IC50 [1] | Ki [2] [nM] | inhibition at 0.05 µM ([2]; percent inhibition at 50 nM) [%] | AUC ([3]; 50 mg/kg) [ng·h/mL] | Cmax ([3]; 50 mg/kg, p.o., 50 mg/kg) [ng/mL] | Mouse Cmin, po [3] [ng/mL] | FLVK (% @ 50 (nM)) ([2]; percent inhibition at 50 nM) [%] | Mouse PK AUC, po ng-h/mL ([3]; p.o., 50 mg/kg) [ng·h/mL] | IC50 ([4]; Homo sapiens, HUVEC, 72 h) [nM] | IC50 ([4]; 72 hours) [nM]
1 | C#CCNC(=O)n1c(C)cc2c(F)c(Oc3ccnc4cc(C(=O)N5CC[C@H](OC)C5)sc34)ccc21 [Example 5g, 4-Fluoro-5-[2-(3S-methoxy-pyrrolidine-1-carbonyl)-thieno[3,2-b]pyridin-7-yloxy]-2-methyl-indole-1-carboxylic acid prop-2-ynylamide] | 11.2 nM | 0.45 | 99 | 1170 | 321 | 65 | – | – | 0.15 | –
2 | C#CCNC(=O)n1c(C)cc2c(F)c(Oc3ccnc4cc(C(=O)N5CCC[C@H]5COC)sc34)ccc21 [Example 5c, 4-Fluoro-5-[2-(2S-methoxymethyl-pyrrolidine-1-carbonyl)-thieno[3,2-b]pyridin-7-yloxy]-2-methyl-indole-1-carboxylic acid prop-2-ynylamide] | 7.7 nM | 0.605 | 99 | 36200 | 19700 | – | – | – | 0.115 | –
3 | CO[C@H]1CCN(C(=O)c2cc3nccc(Oc4ccc5c(c4)cc(C)n5C(=O)NCC#CC4CC4)c3s2)C1 [Example 4i, 5-[2-(3S-Methoxy-pyrrolidine-1-carbonyl)-thieno[3,2-b]pyridin-7-yloxy]-2-methyl-indole-1-carboxylic acid (3-cyclopropyl-prop-2-ynyl)-amide] | 5.5 nM | 1.56 | 97 | – | – | – | – | – | 0.569 | –
4 | CO[C@@H]1CCN(C(=O)c2cc3nccc(Oc4ccc5c(c4)cc(C)n5C(=O)NCC#CC4CC4)c3s2)C1 [Example 4m, 5-[2-(3R-Methoxy-pyrrolidine-1-carbonyl)-thieno[3,2-b]pyridin-7-yloxy]-2-methyl-indole-1-carboxylic acid (3-cyclopropyl-prop-2-ynyl)-amide] | 3.8 nM | 0.271 | 99 | – | – | – | – | – | 0.37 | –
5 | CCNC(=O)n1c(C)cc2cc(Oc3ccnc4cc(C(=O)N5CC[C@H](O)C5)sc34)ccc21 [Example 9h, 5-[2-(3S-Hydroxy-pyrrolidine-1-carbonyl)-thieno[3,2-b]pyridin-7-yloxy]-2-methyl-indole-1-carboxylic acid ethylamide] | 31 nM | 0.258 | 99 | – | – | – | – | – | 0.9 | –
6 | CCCNC(=O)n1c(C)cc2cc(Oc3ccnc4cc(C(=O)N5CC[C@@H](N(C)C)C5)sc34)ccc21 [Example 8h, 5-[(2-{[(3R)-3-(Dimethylamino)pyrrolidin-1-yl]carbonyl}thieno[3,2-b]pyridin-7-yl)oxy]-2-methyl-N-propyl-1H-indole-1-carboxamide] | 19 nM | 0.301 | 99 | 2390 | 920 | 204 | – | – | 0.16 | –
7 | Cc1cc2cc(Oc3ccnc4cc(C(=O)N5CC[C@@H](N(C)C)C5)sc34)ccc2n1C(=O)NCCCO [Example 8i, 5-[(2-{[(3R)-3-(Dimethylamino)pyrrolidin-1-yl]carbonyl}thieno[3,2-b]pyridin-7-yl)oxy]-N-(3-hydroxypropyl)-2-methyl-1H-indole-1-carboxamide] | 26 nM and 34 nM | 0.477 | 99 | – | – | – | – | – | 0.17 | –

Stronger by Ki [2], values ahead:

Row | IC50 [1] | Ki [2] [nM] | inhibition at 0.05 µM ([2]; percent inhibition at 50 nM) [%] | AUC ([3]; 50 mg/kg) [ng·h/mL] | Cmax ([3]; 50 mg/kg, p.o., 50 mg/kg) [ng/mL] | Mouse Cmin, po [3] [ng/mL] | FLVK (% @ 50 (nM)) ([2]; percent inhibition at 50 nM) [%] | Mouse PK AUC, po ng-h/mL ([3]; p.o., 50 mg/kg) [ng·h/mL] | Compound | IC50 ([4]; Homo sapiens, HUVEC, 72 h) [nM] | IC50 ([4]; 72 hours) [nM]
8 | 175 nM | 0.21 | – | – | – | 4 | 97 | 1837 | CO[C@H]1CCN(C(=O)c2cc3nccc(Nc4ccc5c(c4)cc(C)n5C(=O)NC4CC4)c3s2)C1 [Example 1f, 5-[2-(3S-Methoxy-pyrrolidine-1-carbonyl)-thieno[3,2-b]pyridin-7-ylamino]-2-methyl-indole-1-carboxylic acid cyclopropylamide] | – | 0.68
9 | 3.8 nM | 0.16 | 99 | – | – | – | – | – | CNC(=O)n1c(C)cc2c(F)c(Oc3ccnc4cc(C(=O)N5CCC[C@H]5COC)sc34)ccc21 [Example 5a, 4-Fluoro-5-[2-(2S-methoxymethyl-pyrrolidine-1-carbonyl)-thieno[3,2-b]pyridin-7-yloxy]-2-methyl-indole-1-carboxylic acid methylamide] | 0.14 | –
10 | > 1000 nM | 0.17 | 99 | 6 | 5 | 0 | – | – | Cc1cc2cc(Nc3ccnc4cc(C(=O)N5CC[C@@H](O)C5)sc34)ccc2n1C(=O)NC1CC1 [Example 1q, 5-[2-(3R-Hydroxy-pyrrolidine-1-carbonyl)-thieno[3,2-b]pyridin-7-ylamino]-2-methyl-indole-1-carboxylic acid cyclopropylamide] | 0.481 | –
